The values below come from patent US8912222B2, “Method to control insects resistant to common insecticides” (priority 2006, dated 2014).

Like-named read-outs stand apart in the source and are kept apart here. Marks after values point to notes of the source that are not given here. Some results are limits rather than exact numbers.

Series [1] deals with Bemisia tabaci SUD-S strain (susceptible laboratory strain). Briefly: Leaf-disc dip bioassay on adult whiteflies, susceptible reference strain (Example VII). The conditions noted are these: for mortality at 40 ppm / mortality at 100 ppm / mortality at 500 ppm / mortality at 32 ppm / mortality at 512 ppm: Bemisia tabaci, read-out: Mortality, S Strain (SUD-S); for mortality at 40 ppm / mortality at 100 ppm / mortality at 500 ppm: 72 h; for LC50, S strain (SUD-S): in vivo; for mortality at 32 ppm / mortality at 512 ppm: 48 h. It counts as in vivo. The protocol: (§1) The activity of commercial, neonicotinoid insecticides was also assessed and served as the basis for comparisons of relative efficacy on this insecticide-resistant whitefly strain.
(§2) The common name associated with the Q-biotype of B. tabaci is the sweetpotato whitefly. […] The SUD-S strain of B. tabaci was the reference strain used in these tests and is a laboratory strain that is fully susceptible to all insecticide groups.
(§3) Technical samples of Compounds 6 and 7 were initially dissolved in 90% acetone in distilled water (containing 0.01% Agral) to obtain 5000 ppm stock solutions. […] Commercial formulations of imidacloprid (Confidor, 200SL), thiamethoxam (Actara, 25WG) and acetamiprid (Mospilan, 20SP) were diluted using distilled water containing 0.01% Agral.
(§4) Adult B. tabaci were removed from rearing cages using a motorized aspirator and, after brief narcosis, 20-30 healthy female whiteflies were placed onto each treated leaf disc. Each unit was sealed with a close-fitting, ventilated lid. Once adults had recovered from narcosis, dishes were inverted so that the leaf disc was facing abaxial side down allowing the adult whiteflies to orient normally. All bioassays consisted of three replicates per concentration (including controls). Mortality was assessed at 48 hours after initiation of the test for the commercial standards and at 72 hours for Compounds 6 and 7.
(§5) Compounds 6, 7 and the commercial neonicotinoid insecticides imidacloprid, thiamethoxam and acetamiprid were tested in discriminating concentration bioassays against both whitefly strains. More extensive concentration-response bioassays against both whitefly strains were conducted for Compounds 6, 7 and imidacloprid. […] Resistance ratios were calculated using the following equation: […]

For series [2], the system named is insecticide-resistant Q-biotype Bemisia tabaci strain CHLORAKA
As to the kind of experiment: Leaf-disc dip bioassay on adult whiteflies, neonicotinoid-resistant Q-biotype strain (Example VII). In kind it is in vivo. As to conditions: for mortality at 40 ppm / mortality at 100 ppm / mortality at 500 ppm / mortality at 32 ppm / mortality at 512 ppm: Bemisia tabaci, read-out: Mortality, R Strain (CHLORAKA); for mortality at 40 ppm / mortality at 100 ppm / mortality at 500 ppm: 72 h; for Resistance Ratio: CHLORAKA (R) vs SUD-S (S) LC50; for LC50, R strain (CHLORAKA): in vivo; for mortality at 32 ppm / mortality at 512 ppm: 48 h. The protocol: as §1, §2, §3, §4, §5

Series [3] concerns insecticide-resistant Myzus persicae strain 4013A. As to the kind of experiment: Leaf-disc dip bioassay on adult aphids, insecticide-resistant strain (Example IX). As to conditions: for Resistance Ratio: 4013A (R) vs US1L (S) LC50. From the text: (§6) Activity was compared to that of commercial insecticides representing major insecticide classes.
(§7) The common name associated with Myzus persicae is the green peach aphid. […] The “US1L” strain of M. persicae was the reference strain used in these tests.
(§8) Subsequent dilutions used a 10% solution of acetone in distilled water (containing 0.01% Agral®) as the diluent.
(§9) For M. persicae bioassays, discs cut from fully expanded leaves of Chinese cabbage (Brassica rapa ssp. Pekinensis cv. Won Bok) plants were dipped into serial dilutions of insecticide, allowed to air-dry, and placed onto agar-water (1%) beds in plastic Petri-dishes. Leaf discs immersed in the diluent only were used for controls. Adults were removed from rearing boxes and, using a fine camel-hair paint brush, 10 healthy, apterous females were placed onto each treated leaf disc and each unit sealed with a close-fitting, ventilated lid. All bioassays consisted of three replicates per dose (including controls). Mortality was scored at 24, 48 and 72 h following initial exposure for all compounds and the 72 h data were used for all analyses.
(§10) Mortality data were subjected to probit analysis to derive LC50 and LC90 estimates. Resistance ratios were calculated using the following equation: […]

Series [4] relates to insecticide-resistant Q-biotype Bemisia tabaci strain CHLORAKA
As to the kind of experiment: Leaf-disc dip bioassay on adult whiteflies, insecticide-resistant Q-biotype strain (Example IX). In kind it is in vivo. The conditions noted are these: for Resistance Ratio: CHLORAKA (R) vs SUD-S (S) LC50.
Source text: as §2
as §4, with “2, 4,” for “6”, “5.” for “7.”
(§11) Resistance ratios were calculated using the following equation: […]

In series [5] the test system is Myzus persicae US1L strain (susceptible).
Source text: as §6, §7, §8, §9, §10

For series [6], the system named is Bemisia tabaci SUD-S strain (susceptible laboratory strain). Briefly: Leaf-disc dip bioassay on adult whiteflies, susceptible reference strain (Example IX). In kind it is in vivo.
Source text: as §2
as §4, with “2, 4,” for “6”, “5.” for “7.”
as §11

The test system is the same in series [7]. As to the kind of experiment: Leaf-disc dip bioassay on adult whiteflies, susceptible reference strain (Example VIII). In kind it is in vivo. How it is done: (§12) The insecticidal activity of Compound 7 on adults from an insecticide-resistant, B-biotype Bemisia tabaci strain was assessed. The activity of commercial, neonicotinoid insecticides was also assessed and served as the basis for comparisons of relative efficacy on this insecticide-resistant whitefly strain.
(§13) The common name associated with the B-biotype of B. tabaci is the silverleaf whitefly. The strain used in these tests, “GUA-MIX”, was collected from a variety of crops situated in the Zacapa Valley of Guatemala in January of 2004. […] The SUD-S strain of B. tabaci was the reference strain used in these tests and is a laboratory strain that is fully susceptible to all insecticide groups.
(§14) A technical sample of Compound 7 was initially dissolved in 90% acetone in distilled water (containing 0.01% Agral) to obtain a 5000 ppm stock solution. […] Commercial formulations of imidacloprid (Confidor, 200SL), thiamethoxam (Actara, 25WG) and acetamiprid (Mospilan, 20SP) were diluted using distilled water containing 0.01% Agral.
as §4, with “Compound” for “Compounds 6 and”
(§15) Compound 7 and the commercial neonicotinoid insecticides imidacloprid, thiamethoxam and acetamiprid were tested in discriminating concentration bioassays against both whitefly strains. More extensive concentration-response bioassays against both whitefly strains were conducted for Compound 7 and imidacloprid. […] Resistance ratios were calculated using the following equation: […]

Series [8] relates to insecticide-resistant B-biotype Bemisia tabaci strain GUA-MIX. Briefly: Leaf-disc dip bioassay on adult whiteflies, neonicotinoid-resistant B-biotype strain (Example VIII). In kind it is in vivo. The protocol: as §12, §13, §14
as §4, with “Compound” for “Compounds 6 and”
as §15

The test system of series [9] is field-collected populations of the whitefly, Bemisia tabaci. The conditions noted are these: field-collected B. tabaci strains, late 1990s onward; literature; cited from earlier work.
[10] abbreviates: probit analysis, mortality at 72 hours for Compounds 2, 4, 5, 48 hours for commercial standards.
Setting [11] is: probit analysis, 72 h mortality data.
Where [12] appears, read: Bemisia tabaci, 72 h, read-out: Mortality, S Strain (SUD-S).
The mark [13] stands for this setting: Bemisia tabaci, 72 h, read-out: Mortality, R Strain (GUA-MIX).
Setting [14] is: Bemisia tabaci, 48 h, read-out: Mortality, S Strain (SUD-S).
Setting [15] is: Bemisia tabaci, 48 h, read-out: Mortality, R Strain (GUA-MIX).

For orientation: mortality means the percentage killed. Take `C[C@H](c1ccc(Cl)nc1)S(C)(=O)=NC#N` (single isomer, unassigned) [Compound 6]: in series [1], the mortality at 40 ppm was 99%; the mortality at 100 ppm turned out to be 100%; the mortality at 500 ppm was 100%; the “LC50, S strain (SUD-S)” value was determined as 7.4 ppm. In [2], the mortality at 40 ppm was 39%, the mortality at 100 ppm was 79%, the mortality at 500 ppm is 96% and the “Resistance Ratio” value is given as 6.1. For the same molecule, in [2], the “LC50, R strain (CHLORAKA)” value is given as 45 ppm.

Turning to `CC1(C)[C@H](C(=O)O[C@H](C#N)c2cccc(Oc3ccccc3)c2)[C@@H]1C=C(Br)Br` [Deltamethrin, deltamethrin], the “Resistance Ratio” value in series [3] is 60; in series [4], 815 ^. Further, the “LC50, R strain (4013A)” value in series [3] (in vivo) is recorded as 92 ppm. Further, the “LC50, R strain (CHLORAKA)” value in [4] (setting [10]) is reported as 325 ppm. Also, the “LC50, S strain (US1L)” value in series [5] (setting [11]) was determined as 1.5 ppm. For the same molecule, the “LC50, S strain (SUD-S)” value in series [6] (setting [10]) amounted to 0.4 ppm.

For the molecule `C[C@@H](c1ccc(Cl)nc1)S(C)(=O)=NC#N` (single isomer, unassigned) [Compound 7], the mortality at 40 ppm in [1] is 98%; in series [7] (setting [12]), 84%; in series [2] it was 37%; in series [8] (setting [13]), 70%. Also, the mortality at 100 ppm in [1] is 97%; in series [7] (setting [12]), 95%; in series [2] it was 79%; in [8] (setting [13]) it was 79%. In addition, the mortality at 500 ppm amounted to 100% in series [1] and 97% in series [2]. In addition, the figures for the “LC50, S strain (SUD-S)” value in series [1] and in series [7] (in vivo) were 9.0 ppm and 9.3 ppm, respectively. Also, the “Resistance Ratio” value is recorded as 5.9 in series [2] and 3.3 in series [8] (GUA-MIX (R) vs SUD-S (S) LC50). For the same molecule, the “LC50, R strain (CHLORAKA)” value in series [2] turned out to be 53 ppm. Further, the “LC50, R strain (GUA-MIX)” value in [8] (in vivo) worked out at 30.3 ppm.

With `CC(c1ccc(Cl)nc1)S(C)(=O)=NC#N` (centres unmarked) [Compound 5, [1-(6-Chloropyridin-3-yl)ethyl](methyl)oxido-λ^4-sulfanylidenecyanamide], the “Resistance Ratio” value in series [3] is reported as 0.2; in series [4] it was 2.9. In addition, the “LC50, R strain (4013A)” value in series [3] (setting [11]) is recorded as 12.5 ppm. Besides, in series [4] (in vivo), the “LC50, R strain (CHLORAKA)” value worked out at 13.2 ppm. Besides, in [5] (in vivo), the “LC50, S strain (US1L)” value is listed as 62.3 ppm. The “LC50, S strain (SUD-S)” value in series [6] (in vivo) is reported as 4.5 ppm.

`C/C(=N\C#N)N(C)Cc1ccc(Cl)nc1` [Acetamiprid, acetamiprid]: in series [9], the “resistance of more recently-collected whitefly strains” value was “comparable levels of resistance”. The mortality at 32 ppm came out at 52% in series [1], 65% in series [7] (setting [14]), 2% in series [2] and 1% in series [8] (setting [15]). Moreover, the mortality at 512 ppm came to 79% in [1], 98% in series [7] (setting [14]), 30% in [2] and 63% in series [8] (setting [15]).

Consider `CS(=O)(Cc1ccc(Cl)nc1)=NC#N` (centres unmarked) [Compound 4, [(6-Chloropyridin-3-yl)methyl](methyl)oxido-λ^4-sulfanylidenecyanamide], for which the results for the “Resistance Ratio” value in series [3] and in [4] were 0.7 and 5.2, respectively. Also, the “LC50, R strain (4013A)” value in [3] (setting [11]) was determined as 103 ppm. In addition, the “LC50, R strain (CHLORAKA)” value in series [4] (in vivo) was 16.5 ppm. Further, the “LC50, S strain (US1L)” value in [5] (in vivo) is reported as 146 ppm. Besides, the “LC50, S strain (SUD-S)” value in [6] (in vivo) was 3.1 ppm.

As to `CN1COCN(Cc2cnc(Cl)s2)/C1=N\[N+](=O)[O-]` [Thiamethoxam, thiamethoxam], the “resistance of more recently-collected whitefly strains” value in series [9] is listed as “comparable levels of resistance”. Moreover, in series [1], the mortality at 32 ppm came to 85% and the mortality at 512 ppm came out at 94%. In series [7] (setting [14]), the mortality at 32 ppm was found to be 57% and the mortality at 128 ppm came to 73%. Further, in [2], the mortality at 32 ppm came to 0% and the mortality at 512 ppm came out at 15%. In series [8] (setting [15]), the mortality at 25 ppm was 10%, the mortality at 250 ppm came out at 51% and the mortality at 2500 ppm was found to be 87%.

With `CCCSP(=O)(OCC)Oc1ccc(Br)cc1Cl` (centres unmarked) [Profenofos, profenofos], in [4], the “Resistance Ratio” value is 189 ^. In [4] (setting [10]), the “LC50, R strain (CHLORAKA)” value is 374 ppm. For the same molecule, the “LC50, S strain (SUD-S)” value in series [6] (setting [10]) was determined as 2.0 ppm.

Take `CC(c1ccc(C(F)(F)F)nc1)S(C)(=O)=NC#N` (centres unmarked) [Compound 2, [1-(6-Trifluoromethylpyridin-3-yl)ethyl](methyl)-oxido-λ^4-sulfanylidenecyanamide]: the “Resistance Ratio” value in series [3] turned out to be 0.4; in series [4], 2.8. In series [3] (setting [11]), the “LC50, R strain (4013A)” value was 1.52 ppm. Besides, the “LC50, R strain (CHLORAKA)” value in series [4] (setting [10]) is 5.0 ppm. In addition, the “LC50, S strain (US1L)” value in series [5] (setting [11]) is 4.13 ppm. Further, the “LC50, S strain (SUD-S)” value in series [6] (setting [10]) is 1.8 ppm.

`Cc1nc(N(C)C)nc(OC(=O)N(C)C)c1C` [Pirimicarb, pirimicarb]: in series [3], the “Resistance Ratio” value is >60**^. Moreover, the “LC50, R strain (4013A)” value in series [3] (setting [11]) was above 1000 ppm. For the same molecule, the “LC50, S strain (US1L)” value in series [5] (setting [11]) is 14.8 ppm.
